Measured values from patent US9738634B2, “Heterocyclic amide compound and herbicide” (SYNGENTA PARTICIPATIONS AG, priority 2013, dated 2017).

How the values were obtained:
Type in all cases: in vivo
Conditions in all cases: treatment dosage 320 g/ha
barnyard grass [1] = experiment: Test Example 1: weedkilling efficacy, preemergent weed treatment in the submerged state; A: barnyard grass
Outline: (§1)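 Emulsion diluted with water to the specified per-hectare dosage is applied onto flood water (4 cm) over alluvial soil on the sowing day, with barnyard grass, bulrush and pondweed seeded and rice (2.5-leaf) transplanted; plants grow at 25–30 °C and are rated at 3 weeks.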

bulrush [2] = experiment: Test Example 1: weedkilling efficacy, preemergent weed treatment in the submerged state; B: bulrush
Outline: as §1

oval-leafed pondweed [3] = experiment: Test Example 1: weedkilling efficacy, preemergent weed treatment in the submerged state; C: oval-leafed pondweed
Outline: as §1

transplanted rice = experiment: Test Example 1: preemergent weed treatment in the submerged state, effect on crop; a: transplanted rice
Outline: as §1

barnyard grass [4] = experiment: Test Example 2: weedkilling efficacy, growth period weed treatment in the submerged state; A: barnyard grass
Outline: (§2)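 First, alluvial soil in pots is flooded to 4 cm and mixed seed is sown. Next, plants grow in a greenhouse at 25 to 30° C until the 1-2 leaf stage. Then diluted emulsion is applied onto the water surface at the given g/ha rate, and injury is assessed after 3 weeks.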

bulrush [5] = experiment: Test Example 2: weedkilling efficacy, growth period weed treatment in the submerged state; B: bulrush
Outline: as §2

oval-leafed pondweed [6] = experiment: Test Example 2: weedkilling efficacy, growth period weed treatment in the submerged state; C: oval-leafed pondweed
Outline: as §2

crabgrass [7] = experiment: Test Example 3: weedkilling efficacy through soil treatment; D: crabgrass
Outline: (§3)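 Crop and weed responses were judged three weeks after a uniform surface spray of the water-diluted emulsion at the given g/ha rate. Seeds sat beneath about 1.5 cm of sterilized diluvial soil, and boxes stood in a greenhouse at 25 to 30° C.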

green foxtail [8] = experiment: Test Example 3: weedkilling efficacy through soil treatment; E: green foxtail
Outline: as §3

barnyard grass [9] = experiment: Test Example 3: weedkilling efficacy through soil treatment; F: barnyard grass
Outline: as §3

wild oat [10] = experiment: Test Example 3: weedkilling efficacy through soil treatment; G: wild oat
Outline: as §3

black-grass [11] = experiment: Test Example 3: weedkilling efficacy through soil treatment; H: black-grass
Outline: as §3

Italian ryegrass [12] = experiment: Test Example 3: weedkilling efficacy through soil treatment; I: Italian ryegrass
Outline: as §3

common wind-grass [13] = experiment: Test Example 3: weedkilling efficacy through soil treatment; J: common wind-grass
Outline: as §3

Indian mallow [14] = experiment: Test Example 3: weedkilling efficacy through soil treatment; K: Indian mallow
Outline: as §3

redroot pigweed [15] = experiment: Test Example 3: weedkilling efficacy through soil treatment; L: redroot pigweed
Outline: as §3

fig-leafed goosefoot [16] = experiment: Test Example 3: weedkilling efficacy through soil treatment; M: fig-leafed goosefoot
Outline: as §3

chickweed [17] = experiment: Test Example 3: weedkilling efficacy through soil treatment; N: chickweed
Outline: as §3

catchweed [18] = experiment: Test Example 3: weedkilling efficacy through soil treatment; O: catchweed
Outline: as §3

birds-eye speedwell [19] = experiment: Test Example 3: weedkilling efficacy through soil treatment; p: birds-eye speedwell
Outline: as §3

directly sown rice [20] = experiment: Test Example 3: soil treatment, effect on crop; b: directly sown rice
Outline: as §3

corn [21] = experiment: Test Example 3: soil treatment, effect on crop; c: corn
Outline: as §3

soybean [22] = experiment: Test Example 3: soil treatment, effect on crop; d: soybean
Outline: as §3

wheat [23] = experiment: Test Example 3: soil treatment, effect on crop; e: wheat
Outline: as §3

beet [24] = experiment: Test Example 3: soil treatment, effect on crop; f: beet
Outline: as §3

rapeseed [25] = experiment: Test Example 3: soil treatment, effect on crop; g: rapeseed
Outline: as §3

crabgrass [26] = experiment: Test Example 4: weedkilling efficacy by foliar treatment; D: crabgrass
Outline: (§4)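 Seeds are spot-sown into sterilized diluvial soil and covered with about 1.5 cm of soil. After 14 days' greenhouse growth at 25 to 30° C, plants are sprayed on stems and leaves with diluted emulsion at the stated g/ha rate, then scored at 3 weeks.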

green foxtail [27] = experiment: Test Example 4: weedkilling efficacy by foliar treatment; E: green foxtail
Outline: as §4

barnyard grass [28] = experiment: Test Example 4: weedkilling efficacy by foliar treatment; F: barnyard grass
Outline: as §4

wild oat [29] = experiment: Test Example 4: weedkilling efficacy by foliar treatment; G: wild oat
Outline: as §4

black-grass [30] = experiment: Test Example 4: weedkilling efficacy by foliar treatment; H: black-grass
Outline: as §4

Italian ryegrass [31] = experiment: Test Example 4: weedkilling efficacy by foliar treatment; I: Italian ryegrass
Outline: as §4

common wind-grass [32] = experiment: Test Example 4: weedkilling efficacy by foliar treatment; J: common wind-grass
Outline: as §4

Indian mallow [33] = experiment: Test Example 4: weedkilling efficacy by foliar treatment; K: Indian mallow
Outline: as §4

redroot pigweed [34] = experiment: Test Example 4: weedkilling efficacy by foliar treatment; L: redroot pigweed
Outline: as §4

fig-leafed goosefoot [35] = experiment: Test Example 4: weedkilling efficacy by foliar treatment; M: fig-leafed goosefoot
Outline: as §4

chickweed [36] = experiment: Test Example 4: weedkilling efficacy by foliar treatment; N: chickweed
Outline: as §4

catchweed [37] = experiment: Test Example 4: weedkilling efficacy by foliar treatment; O: catchweed
Outline: as §4

birds-eye speedwell [38] = experiment: Test Example 4: weedkilling efficacy by foliar treatment; p: birds-eye speedwell
Outline: as §4

directly sown rice [39] = experiment: Test Example 4: foliar treatment, effect on crop; b: directly sown rice
Outline: as §4

corn [40] = experiment: Test Example 4: foliar treatment, effect on crop; c: corn
Outline: as §4

soybean [41] = experiment: Test Example 4: foliar treatment, effect on crop; d: soybean
Outline: as §4

wheat [42] = experiment: Test Example 4: foliar treatment, effect on crop; e: wheat
Outline: as §4

beet [43] = experiment: Test Example 4: foliar treatment, effect on crop; f: beet
Outline: as §4

rapeseed [44] = experiment: Test Example 4: foliar treatment, effect on crop; g: rapeseed
Outline: as §4

COc1cc(C(F)(F)F)cc(NC(=O)C(C)(C)N2COC(C)=C(c3cccnc3F)C2=O)n1 [B-2-14]
A (barnyard grass) weedkilling efficacy grade (barnyard grass [1]): 5 (weed kill ratio 90% or more, (practically complete withering))
B (bulrush) weedkilling efficacy grade (bulrush [2]): 5 (weed kill ratio 90% or more, (practically complete withering))
C (oval-leafed pondweed) weedkilling efficacy grade (oval-leafed pondweed [3]): 4 (weed kill ratio 70% or more, less than 90%)
a (transplanted rice) effect on crop grade (transplanted rice): 3 (weed kill ratio 40% or more, less than 70%)
A (barnyard grass) weedkilling efficacy grade (barnyard grass [4]): 4 (weed kill ratio 70% or more, less than 90%)
B (bulrush) weedkilling efficacy grade (bulrush [5]): 4 (weed kill ratio 70% or more, less than 90%)
C (oval-leafed pondweed) weedkilling efficacy grade (oval-leafed pondweed [6]): 4 (weed kill ratio 70% or more, less than 90%)
D (crabgrass) weedkilling efficacy grade (crabgrass [7]): 5 (weed kill ratio 90% or more, (practically complete withering))
E (green foxtail) weedkilling efficacy grade (green foxtail [8]): 5 (weed kill ratio 90% or more, (practically complete withering))
F (barnyard grass) weedkilling efficacy grade (barnyard grass [9]): 5 (weed kill ratio 90% or more, (practically complete withering))
G (wild oat) weedkilling efficacy grade (wild oat [10]): 5 (weed kill ratio 90% or more, (practically complete withering))
H (black-grass) weedkilling efficacy grade (black-grass [11]): 5 (weed kill ratio 90% or more, (practically complete withering))
I (Italian ryegrass) weedkilling efficacy grade (Italian ryegrass [12]): 5 (weed kill ratio 90% or more, (practically complete withering))
J (common wind-grass) weedkilling efficacy grade (common wind-grass [13]): 5 (weed kill ratio 90% or more, (practically complete withering))
K (Indian mallow) weedkilling efficacy grade (Indian mallow [14]): 0 (weed kill ratio 5% or less (practically no effect))
L (redroot pigweed) weedkilling efficacy grade (redroot pigweed [15]): 3 (weed kill ratio 40% or more, less than 70%)
M (fig-leafed goosefoot) weedkilling efficacy grade (fig-leafed goosefoot [16]): 3 (weed kill ratio 40% or more, less than 70%)
N (chickweed) weedkilling efficacy grade (chickweed [17]): 3 (weed kill ratio 40% or more, less than 70%)
O (catchweed) weedkilling efficacy grade (catchweed [18]): 4 (weed kill ratio 70% or more, less than 90%)
P (birds-eye speedwell) weedkilling efficacy grade (birds-eye speedwell [19]): 4 (weed kill ratio 70% or more, less than 90%)
b (directly sown rice) effect on crop grade (directly sown rice [20]): 4 (weed kill ratio 70% or more, less than 90%)
c (corn) effect on crop grade (corn [21]): 0 (weed kill ratio 5% or less (practically no effect))
d (soybean) effect on crop grade (soybean [22]): 0 (weed kill ratio 5% or less (practically no effect))
e (wheat) effect on crop grade (wheat [23]): 0 (weed kill ratio 5% or less (practically no effect))
f (beet) effect on crop grade (beet [24]): 3 (weed kill ratio 40% or more, less than 70%)
g (rapeseed) effect on crop grade (rapeseed [25]): 1 (weed kill ratio 5% or more, less than 20%)
D (crabgrass) weedkilling efficacy grade (crabgrass [26]): 4 (weed kill ratio 70% or more, less than 90%)
E (green foxtail) weedkilling efficacy grade (green foxtail [27]): 5 (weed kill ratio 90% or more, (practically complete withering))
F (barnyard grass) weedkilling efficacy grade (barnyard grass [28]): 4 (weed kill ratio 70% or more, less than 90%)
G (wild oat) weedkilling efficacy grade (wild oat [29]): 4 (weed kill ratio 70% or more, less than 90%)
H (black-grass) weedkilling efficacy grade (black-grass [30]): 5 (weed kill ratio 90% or more, (practically complete withering))
I (Italian ryegrass) weedkilling efficacy grade (Italian ryegrass [31]): 5 (weed kill ratio 90% or more, (practically complete withering))
J (common wind-grass) weedkilling efficacy grade (common wind-grass [32]): 5 (weed kill ratio 90% or more, (practically complete withering))
K (Indian mallow) weedkilling efficacy grade (Indian mallow [33]): 5 (weed kill ratio 90% or more, (practically complete withering))
L (redroot pigweed) weedkilling efficacy grade (redroot pigweed [34]): 4 (weed kill ratio 70% or more, less than 90%)
M (fig-leafed goosefoot) weedkilling efficacy grade (fig-leafed goosefoot [35]): 4 (weed kill ratio 70% or more, less than 90%)
N (chickweed) weedkilling efficacy grade (chickweed [36]): 4 (weed kill ratio 70% or more, less than 90%)
O (catchweed) weedkilling efficacy grade (catchweed [37]): 4 (weed kill ratio 70% or more, less than 90%)
P (birds-eye speedwell) weedkilling efficacy grade (birds-eye speedwell [38]): 4 (weed kill ratio 70% or more, less than 90%)
b (directly sown rice) effect on crop grade (directly sown rice [39]): 3 (weed kill ratio 40% or more, less than 70%)
c (corn) effect on crop grade (corn [40]): 3 (weed kill ratio 40% or more, less than 70%)
d (soybean) effect on crop grade (soybean [41]): 3 (weed kill ratio 40% or more, less than 70%)
e (wheat) effect on crop grade (wheat [42]): 0 (weed kill ratio 5% or less (practically no effect))
f (beet) effect on crop grade (beet [43]): 3 (weed kill ratio 40% or more, less than 70%)
g (rapeseed) effect on crop grade (rapeseed [44]): 4 (weed kill ratio 70% or more, less than 90%)
